# Where two headings read alike, the source gives them in different places.
# How the values were obtained:
# [1] = target: T1, central NK1 receptors (Homo sapiens, UniProt P25103); experiment: Phase 1 apomorphine challenge study: blocking of apomorphine induced emesis in healthy volunteers; format: in vivo; details: for Average Number of Retches or Vomits / Number of Retches (Events) / Number of Retches (Subjects) / Number of Vomits (Subjects) / Number of Vomits (Events): N = 5
# T1 construct: from tissue; host or cells: central nervous system of healthy human volunteers (in vivo)
# Method: (§1) A pharmacodynamic study to assess functional blocking of central NK1 receptors was performed in healthy volunteers. This was done by testing the efficacy of the compound in blocking apomorphine induced emesis. This study indicates the need for a minimum concentration of the initial peak at infusion to obtain efficacious levels, rather than minimal plasma-levels at the time of apomorphine challenge.
# (§2) In the phase 1 apomorphine challenge study the ability of the compound to block emesis induced by apomorphine was tested in healthy volunteers. […] At neither time point did subjects require rescue medication to prevent uncontrolled vomiting. On the other hand, when the apomorphine challenge was performed 2 hours after a 30 mg dose (n=5), an average of 4.2 retches and vomits were observed, which would have been even higher had two of five subjects not received rescue medication to block the apomorphine effects. Importantly the plasma concentration of the Compound 2 hours after the 30 mg dose was 60% higher than the plasma concentration 20 hours after the 90 mg dose.
# [2] = Solubility assessment and pH of solution; format: physicochemical
# Method: Ethanol was also assessed as part of this study.
# [3] = Intracranial pressure (ICP) curves in clinical trial patients, slow 2-hour infusion; format: in vivo, human; details: two patients, slow infusion over 2 hours
# Method: In order to avoid any potential safety issues, the infusion in human clinic trials was slowed down to 2 hours to generate the same AUC but a lower Cmax.
# However two patients were treated in a clinical trial, using a slow infusion rate over a timespan of 2 hours.
# [4] = Plasma concentrations in the apomorphine challenge study; format: in vivo, human
# Method: as §1, §2
# [5] = 30 mg, apomorphine challenge 2 h after dose
# [6] = 90 mg, apomorphine challenge 2 h after dose
# [7] = 90 mg, apomorphine challenge 20 h after dose
# T1 sequence (P25103 whole entry): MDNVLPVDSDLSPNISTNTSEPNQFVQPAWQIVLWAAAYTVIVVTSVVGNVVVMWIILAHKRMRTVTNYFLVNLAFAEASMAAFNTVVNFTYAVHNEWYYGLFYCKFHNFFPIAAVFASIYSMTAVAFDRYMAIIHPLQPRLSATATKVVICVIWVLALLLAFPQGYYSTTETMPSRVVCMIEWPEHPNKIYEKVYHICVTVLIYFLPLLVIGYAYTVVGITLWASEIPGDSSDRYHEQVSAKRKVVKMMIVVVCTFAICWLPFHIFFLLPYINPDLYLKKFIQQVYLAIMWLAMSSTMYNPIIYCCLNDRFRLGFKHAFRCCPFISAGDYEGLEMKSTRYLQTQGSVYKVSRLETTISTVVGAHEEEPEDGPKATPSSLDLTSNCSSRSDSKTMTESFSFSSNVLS
structure (smiles),measurement,setting,value
Cc1ccccc1-c1cc(N2CCN(C)CC2)ncc1C(=O)N(C)Cc1cc(C(F)(F)F)cc(C(F)(F)F)c1 [Compound of Formula (I) 2HCl (R1 = CH3)],Average Number of Retches or Vomits,[1]; [5],4.2
same,Number of Retches (Events),[1]; [5],9
same,Number of Retches (Subjects),[1]; [5],2
same,Number of Vomits (Subjects),[1]; [5],3
same,Number of Vomits (Events),"[1]; 30 mg, apomorphine challenge 2 h after dose, 2 of 5 subjects rescued",> 12
same,Average Number of Retches or Vomits,[1]; [6],1.4
same,Number of Retches (Events),[1]; [6],5
same,Number of Retches (Subjects),[1]; [6],2
same,Number of Vomits (Events),[1]; [6],2/2
same,Number of Vomits (Subjects),[1]; [6],2/2
same,Average Number of Retches or Vomits,[1]; [7],2.6
same,Number of Retches (Events),[1]; [7],12
same,Number of Retches (Subjects),[1]; [7],4
same,Number of Vomits (Events),[1]; [7],1/1
same,Number of Vomits (Subjects),[1]; [7],1/1
same,duration of reduction of retches/vomits once NK1 blockade is achieved,[1]; after peak level of at least 1000-1300 ng/ml,≥ 20 h
same,"Solubility in Water, Result",[2]; 5 mg/mL (50 mg in 10 mL water),Very soluble
same,pH of solution,[2]; 5 mg/mL in water,2.39
same,"Solubility in Water, Result",[2]; 10 mg/mL (100 mg in 10 mL water),Very soluble
same,pH of solution,[2]; 10 mg/mL in water,2.14
same,"Solubility in Water, Result",[2]; 15 mg/mL (150 mg in 10 mL water),Soluble
same,pH of solution,[2]; 15 mg/mL in water,2.02
same,"Solubility in Water, Result",[2]; 20 mg/mL (200 mg in 10 mL water),Soluble
same,pH of solution,[2]; 20 mg/mL in water,1.87
same,"Solubility in Water, Result",[2]; 25 mg/mL (250 mg in 10 mL water),Soluble
same,pH of solution,[2]; 25 mg/mL in water,1.81
same,"Solubility in Water, Result",[2]; 30 mg/mL (300 mg in 10 mL water),Soluble
same,pH of solution,[2]; 30 mg/mL in water,1.75
same,"Solubility in Water, Result",[2]; 35 mg/mL (350 mg in 10 mL water),Soluble
same,pH of solution,[2]; 35 mg/mL in water,1.72
same,"Solubility in Water, Result",[2]; 40 mg/mL (400 mg in 10 mL water),Soluble
same,pH of solution,[2]; 40 mg/mL in water,1.66
same,"Solubility in Water, Result",[2]; 45 mg/mL (450 mg in 10 mL water),Soluble
same,pH of solution,[2]; 45 mg/mL in water,1.54
same,"Solubility in Water, Result",[2]; 50 mg/mL (500 mg in 10 mL water),Soluble
same,pH of solution,[2]; 50 mg/mL in water,1.52
same,Solubility,"[2]; 50 mg/mL, stated after 'Ethanol was also assessed', solvent not explicit, golden yellow colour",freely soluble
same,efficacy on ICP (ICP curves),[3],no or minimal efficacy
same,"plasma concentration 2 hours after the 30 mg dose, higher than plasma concentration 20 hours after the 90 mg dose",[4]; 30 mg/2 h versus 90 mg/20 h,60%
same,Cmax,"[4]; human, plasma, intravenous, 30 mg, apomorphine challenge 2 h after dose, N = 5, read-out: Cmax at end of infusion",252 ng/mL
same,Cmax,"[4]; human, plasma, intravenous, 90 mg, apomorphine challenge 2 h after dose, N = 5, read-out: Cmax at end of infusion",1040 ng/mL
same,Cmax,"[4]; human, plasma, intravenous, 90 mg, apomorphine challenge 20 h after dose, N = 5, read-out: Cmax at end of infusion",1270 ng/mL
same,Cmax,"[4]; human, plasma, intravenous, 90 mg, healthy volunteers, apomorphine challenge, read-out: minimum initial peak level (Cmax) at infusion to obtain efficacious levels / central NK1 blockade",1000 to 1300 ng/mL
same,concentration at 2 h,"[4]; human, plasma, intravenous, 30 mg, apomorphine challenge 2 h after dose, N = 5, read-out: Conc. at challenge",112 ng/mL
same,concentration at 2 h,"[4]; human, plasma, intravenous, 90 mg, apomorphine challenge 2 h after dose, N = 5, read-out: Conc. at challenge",356 ng/mL
same,concentration at 20 h,"[4]; human, plasma, intravenous, 90 mg, apomorphine challenge 20 h after dose, N = 5, read-out: Conc. at challenge",69 ng/mL

# — patent US20230124548A1, “Therapeutic Methods And Uses Thereof” (Eustralis Pharmaceuticals Limited (Trading As Pressura …, priority 2019, published 2023)
